“Also recorded” adds a separate entry of the source.
Tests used:
tHDF cells [1] = test: Western blot of DNA damage response marker phospho-P53 after IR; assay type: cell-based, human; conditions: treatment prior to IR; PD0332991 100 nM for 24 hours, 6 Gy
Method: FIG. 4A are images of Western blots of a DNA damage response marker (phospho-P53) in telomerized human diploid fibroblast (tHDF) cell lysates 3 hours after or 6 hours after a 6 gray (Gy) dose of ionizing radiation (IR) or following no IR, as indicated above the blot images. […] Actin western blot is shown as a loading control.
FIG. 4B is a bar graph showing the normalized phospho-P53 intensity in the telomerized human diploid fibroblast (tHDF) cells described in FIG. 4A.
Western Blots: Western blots were performed on cell lysates in NP-40 lysis buffer with protease inhibitors (Roche, Basel, Switzerland) and phosphatase inhibitors (Calbiochem, San Diego, Calif., United States of America) as previously described (see Ramsey et al., Cancer Res., 67, 4732-4741), using anti-p53-phospho-Ser15 (Cell Signaling Technology, Beverly, Mass., United States of America), Bax, p21, and actin-HRP (Santa Cruz Biotechnology, Inc., Santa Cruz, Calif., United States of America).

tHDF cells [2] = test: γH2AX after IR; assay type: cell-based, human; conditions: 24 hours prior to IR; PD0332991 100 nM (6 Gy), 2BrIC 2 μM (0-8 Gy)
From the text: FIG. 5A is a set of grayscale 40× images of phospho-γH2AX foci (nuclear) and phalloidin staining (cytoplasmic) of telomerized human diploid fibroblasts (tHDF) with (bottom row) and without (top row) 6 Gy ionizing radiation (IR). […] Scale bar=50 μm.
N=139 or greater for each condition; box=middle 50%, whiskers=0-25% and 75-100%. Significance determined by Kruskal-Wallis with Dunn post-hoc test for pairwise comparisons (*** p<0.0001).
FIG. 5F is a set of representative phospho-γH2AX (x-axis) dot plots after 0, 2, 4, 6, or 8 gray (Gy) of ionizing radiation with (right-hand column) or without (left-hand column) treatment with the selective cyclin-dependent kinase 4/6 (CDK4/6) inhibitor 2-bromo-12,13-dihydro-5H-indolo[2,3-a]pyrrolo[3,4]carbazole-5,6-dione (2BrIC) at 2 μM for 24 hours prior to exposure to ionizing radiation (IR). Cells that were not treated with 2BrIC were instead treated with vehicle (dimethyl sulfoxide (DMSO)) only. An increased fraction of phospho-γH2AX (x-axis) expressing cells is noted with increased doses of IR in DMSO treated cells.
γH2AX after IR: For γH2AX images, tHDF received 6 Gy IR with or without 24 hours of prior exposure to a CDK inhibitor. […] Images were analyzed for mean nuclear intensities were computed in ImageJ software (developed by the National Institutes of Health, Bethesda, Md., United States of America). […]

[3] = system: telomerized human diploid fibroblasts (tHDF); test: Cell cycle analysis (BrdU incorporation in vitro), tHDF; assay type: cell-based; conditions: 24 hours exposure
From the text: FIG. 3A is a set of graphs showing the dose-response curves for cycle analysis in both cyclin-dependent kinase 4/6 (CKD4/6)-dependent cells (human telomerized human diploid fibroblasts (tHDFs, left-hand column of graphs) and a CDK4/6-dependent human melanoma cell line (WM2664, middle column of graphs)) and in CDK4/6-independent cells (a human retinoblastoma tumor suppressor protein (RB)-null melanoma cell line (A2058), right-hand column of graphs). […] The percentage of cells in the G1 phase is indicated by the data shown in the open triangles, while the percentage of cells in the S phase is shown by the data in the shaded circles and the percentage of cells in the G2/M phase is indicated by the data in the double “x”s.
Cell Lines: KPTR1, KPTR4. and KPTR5 were derived from tumor-bearing TyrRAS+Ink4a/Arf−/− by standard procedures and cultured in RPMI+10% fetal bovine serum (FBS). Telomerized HDFs (tHDFs, also known as HS68) were cultured in DMEM+10% FBS with penicillin and streptomycin. The same conditions were used for A2058 and WM2664, human melanoma cell lines with known RB-pathway mutations: A2058 is RB-null, whereas WM2664 lacks p16^INK4a/Arf. See Shields, et al., Cancer Res., 67, 1502-1512 (2007). Cells were irradiated for indicated doses in a Rad Source Inc. (Alpharetta, Ga., United States of America) RS-2000 Biological Irradiator at 160 kV, 25.0 mA, at distance setting 1, with a dose rate of 103 rads/min.
BrdU Incorporation in vitro: Cells were plated and allowed to adhere overnight or at least 6 hours prior to adding CDK4/6 inhibitor at the indicated concentrations. Cells were grown for 24 hours in the presence of CDK4/6 inhibitor. 15 minutes prior to cell harvesting, 5-Bromo-2-deoxyuridine (BrdU) was added to the media at a final concentration of 10 μM. The cells were then washed, trypsinized, pelleted, fixed, permeabilized, stained, and measured on a flow cytometer as described in manufacturer directions for the BrdU Kit (BD Biosciences Pharmingen, San Diego, Calif., United States of America).
The proliferation of seven RB-deficient human small cell lung cancer lines was also resistant to the selective CDK4/6 inhibitors.

| SMILES | DNA damage response (phospho-P53) after IR (tHDF cells [1]) | γH2AX formation after IR (tHDF cells [2]) | cell cycle effect [3] |
| --- | --- | --- | --- |
| CC(=O)c1c(C)c2cnc(Nc3ccc(N4CCNCC4)cn3)nc2n(C2CCCC2)c1=O [PD0332991, 6-acetyl-8-cyclopentyl-5-methyl-2-(5-piperazin-1-yl-pyridin-2-ylamino)-8H-pyrido-[2,3-d]-pyrimidin-7-one] | attenuated | attenuated | strong, reversible G1-arrest |
| O=C1NC(=O)c2c1c1c3ccccc3[nH]c1c1[nH]c3cc(Br)ccc3c21 [Compound 2BrIC, 2-bromo-12,13-dihydro-5H-indolo[2,3-a]pyrrolo[3,4]-carbazole-5,6-dione] | attenuated | attenuated; also recorded: potently decreases IR-induced DNA damage; also recorded: decreases the induction of phospho-γH2AX expression | strong, reversible G1-arrest |
